Blank lines part the entries; values can stand above or below the compound they belong to.
Experiments:
murine CD4 T cells = test: Murine CD4 T cell chemotactic response to exodus-2; format: cell-based
Method: To assess this modulation and to test the effects of Edg-1 agonists and antagonists on this effect, murine CD4 T cells chemotactic responses to exodus-2 were tested in the presence of S1P and the Edg-1 agonist 104. These experiments were performed according to the migration and invasion assay protocols described in Section 7.12, below.
The effects of Edg-1 antagonists on S1P regulation of the chemotactic response to exodus-2 were also assessed. This experiment was performed according to the migration and invasion assay protocols described in Section 7.12, below. […] Thus, these Edg-1 antagonists can antagonize both aspects of the regulation by S1P of exodus-2-mediated chemotaxis.
(§1) Cells were plated in a 24 well format using Fluoroblok filter insert plates ([…] pore size) or Fluoroblok matrigel coated filter insert plates (Becton Dickinson, San Diego, Calif.). The assay was a modified Boyden Chamber assay in which a cell suspension (1×10^5 cells/ml) was prepared in serum free medium and added to the top chamber. LPA or S1P (doses ranged from 0.1-10 μM in serum free medium) was added to the bottom chamber. Following a 20-24 hour incubation period, the number of cells migrating or invading into the lower chamber was quantitated by transferring the filter insert into a fresh 24-well plate containing 4 μg/ml calcein AM (Molecular Probes, Sunnyvale, Calif.) in Hank's Balanced Salt Solution and staining for one hour.
(§2) Detection was via fluorescent readout at 450 nm excitation/530 nm emission using a fluorimeter. The level of fluorescence correlated with cell number.

Edg-2 = target: T1, Edg-2 (Homo sapiens, UniProt Q92633); test: Intracellular calcium (FLIPR) assay, HTC cells expressing Edg-2; format: cell-based
T1 construct: expressed in transfected cells; host or cells: HTC rat hepatoma cells

Edg-8 = target: T2, Edg-8 (Homo sapiens, UniProt Q9H228); test: Intracellular calcium (FLIPR) assay, HTC cells expressing Edg-8; format: cell-based
T2 construct: expressed in transfected cells; host or cells: HTC rat hepatoma cells

Edg-3 = target: T3, Edg-3 (Homo sapiens, UniProt Q99500); test: Intracellular calcium (FLIPR) assay, HTC cells expressing Edg-3; format: cell-based
T3 construct: expressed in transfected cells; host or cells: HTC rat hepatoma cells

Edg-5 = target: T4, Edg-5 (Homo sapiens, UniProt O95136); test: Intracellular calcium (FLIPR) assay, HTC cells expressing Edg-5; format: cell-based
T4 construct: expressed in transfected cells; host or cells: HTC rat hepatoma cells

[1] = test system: mouse splenic CD4 T cells; test: Lymphocyte migration in mouse dorsal air-pouch model; format: in vivo; settings: lavage after 24 hours, FIG. 15
Method: To test migration of mouse T cells in vivo, the ability of exodus-2 to attract mouse lymphocytes was assessed in the mouse dorsal air-pouch model. In these experiments, 0.5 ml 1 μM exodus-2 was introduced into a dorsal air-pouch produced by injecting 5 ml of filtered air subcutaneously. Mouse splenic CD4 T cells were fluorescently labeled with FM-DiI (Molecular Probes, Inc., Eugene, Oreg.), then treated with S1P (1 μM), 102, or 104. The treated CD4T cells were introduced into the peritoneal cavity. After 24 hours, lavage (1 ml) from the dorsal air pouch was assayed for fluorescence.

Edg-7 = target: T5, Edg-7 (Homo sapiens, UniProt Q9UBY5); test: Intracellular calcium (FLIPR) assay, HTC cells expressing Edg-7; format: cell-based
T5 construct: expressed in transfected cells; host or cells: HTC rat hepatoma cells
T5 sequence (Q9UBY5 1-353): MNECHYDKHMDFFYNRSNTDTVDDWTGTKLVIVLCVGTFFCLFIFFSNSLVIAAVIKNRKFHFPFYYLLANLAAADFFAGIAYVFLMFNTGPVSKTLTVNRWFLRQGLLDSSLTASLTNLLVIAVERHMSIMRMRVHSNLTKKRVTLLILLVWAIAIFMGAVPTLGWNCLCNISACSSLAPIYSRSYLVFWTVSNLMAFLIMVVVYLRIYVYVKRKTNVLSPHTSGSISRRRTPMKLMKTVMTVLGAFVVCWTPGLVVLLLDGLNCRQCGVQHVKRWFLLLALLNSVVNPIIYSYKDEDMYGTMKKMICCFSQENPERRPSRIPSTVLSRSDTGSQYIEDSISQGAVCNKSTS

[2] = test system: human umbilical vein endothelial cells; test: Trans-matrigel chemotaxis / invasion assay with HUVECs (modified Boyden chamber); format: cell-based
Method: In addition to Edg-1, other Edg receptors are also implicated in S1P stimulated chemotaxis, including Edg-3 and Edg-6. To assess the relative roles of the Edg-1 receptors and Edg-3 receptors in S1P stimulated chemotaxis, the ability of S1P to evoke trans-matrigel chemotaxis was tested in the presence of the Edg-1 antagonist 101, the Edg-3 antagonist 301, and the combination of 101 and 301. These experiments were performed according to the migration and invasion assay protocols described in Section 7.12, below. The Edg-3 antagonist 301, 3-Methyl-2-phenyl-quinoline-4-carboxylic acid 4-fluoro-benzylamide, is extensively described in co-pending U.S. application Ser. No. 10/390,426, which is incorporated by reference in its entirety. 301 is identified as compound 101 in U.S. application Ser. No. 10/390,426. Further, 301 is commercially available from Specs (The Netherlands) as compound number AK-968/12971392.
S1P is a strong chemoattractant to human PBMCs. […] Several migration assays were performed to test this hypothesis and to determine the effect of Edg-1 agonists and antagonists on S1P mediated chemotaxis. The migration assays were performed according to the protocol described in Section 7.12, below. The results of theses assays are presented in FIG. 6, FIG. 7, FIG. 8, FIG. 9 and FIG. 13.
as §1, §2

Edg-4 = Edg-4 (Homo sapiens, UniProt Q9HBW0); test: Intracellular calcium (FLIPR) assay, HTC cells expressing Edg-4; format: cell-based
Edg-6 = target: T6, Edg-6 (Homo sapiens, UniProt O95977); test: Intracellular calcium (FLIPR) assay, HTC cells expressing Edg-6; format: cell-based
T6 construct: expressed in transfected cells; host or cells: HTC rat hepatoma cells
T6 sequence (O95977 1-384): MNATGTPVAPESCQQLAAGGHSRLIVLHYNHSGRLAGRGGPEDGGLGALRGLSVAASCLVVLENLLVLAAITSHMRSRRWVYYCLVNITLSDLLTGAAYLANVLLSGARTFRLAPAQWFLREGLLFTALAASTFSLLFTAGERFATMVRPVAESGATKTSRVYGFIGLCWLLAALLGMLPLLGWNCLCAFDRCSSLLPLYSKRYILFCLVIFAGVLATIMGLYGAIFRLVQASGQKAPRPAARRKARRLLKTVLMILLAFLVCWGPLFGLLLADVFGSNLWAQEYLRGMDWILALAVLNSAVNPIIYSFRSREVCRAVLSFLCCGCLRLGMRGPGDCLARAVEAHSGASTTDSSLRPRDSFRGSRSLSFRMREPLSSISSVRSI

[3] = concentrations as high as 20 μM
[4] = agonist, concentrations as high as 25 μM

T4 sequence (O95136 whole entry): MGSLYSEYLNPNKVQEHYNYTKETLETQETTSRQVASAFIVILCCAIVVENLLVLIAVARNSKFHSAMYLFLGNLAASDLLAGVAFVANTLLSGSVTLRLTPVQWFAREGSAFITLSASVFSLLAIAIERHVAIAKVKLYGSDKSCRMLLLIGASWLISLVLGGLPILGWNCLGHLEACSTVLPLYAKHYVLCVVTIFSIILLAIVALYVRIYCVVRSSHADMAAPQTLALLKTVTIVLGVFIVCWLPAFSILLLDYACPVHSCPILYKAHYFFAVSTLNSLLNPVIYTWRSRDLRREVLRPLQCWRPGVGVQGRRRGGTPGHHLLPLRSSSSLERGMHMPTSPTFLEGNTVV
T3 sequence (Q99500 whole entry): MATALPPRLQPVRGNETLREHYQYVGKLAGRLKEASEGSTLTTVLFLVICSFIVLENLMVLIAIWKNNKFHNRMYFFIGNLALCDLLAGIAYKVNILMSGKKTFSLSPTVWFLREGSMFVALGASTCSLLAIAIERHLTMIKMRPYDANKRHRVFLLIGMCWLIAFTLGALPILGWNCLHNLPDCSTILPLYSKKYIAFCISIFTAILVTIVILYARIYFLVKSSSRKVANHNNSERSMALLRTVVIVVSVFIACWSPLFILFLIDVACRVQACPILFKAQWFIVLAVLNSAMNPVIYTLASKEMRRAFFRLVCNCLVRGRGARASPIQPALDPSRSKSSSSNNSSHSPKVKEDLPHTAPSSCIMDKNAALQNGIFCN
T1 sequence (Q92633 whole entry): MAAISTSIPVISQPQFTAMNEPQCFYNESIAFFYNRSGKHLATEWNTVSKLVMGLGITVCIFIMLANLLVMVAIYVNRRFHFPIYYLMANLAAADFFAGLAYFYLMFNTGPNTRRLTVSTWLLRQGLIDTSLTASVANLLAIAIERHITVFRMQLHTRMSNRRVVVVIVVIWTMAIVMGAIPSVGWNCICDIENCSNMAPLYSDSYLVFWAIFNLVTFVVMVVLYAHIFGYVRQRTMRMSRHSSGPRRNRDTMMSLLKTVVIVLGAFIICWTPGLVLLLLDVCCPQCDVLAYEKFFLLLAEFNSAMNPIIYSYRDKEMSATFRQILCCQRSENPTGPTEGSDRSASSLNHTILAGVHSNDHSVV
T2 sequence (Q9H228 whole entry): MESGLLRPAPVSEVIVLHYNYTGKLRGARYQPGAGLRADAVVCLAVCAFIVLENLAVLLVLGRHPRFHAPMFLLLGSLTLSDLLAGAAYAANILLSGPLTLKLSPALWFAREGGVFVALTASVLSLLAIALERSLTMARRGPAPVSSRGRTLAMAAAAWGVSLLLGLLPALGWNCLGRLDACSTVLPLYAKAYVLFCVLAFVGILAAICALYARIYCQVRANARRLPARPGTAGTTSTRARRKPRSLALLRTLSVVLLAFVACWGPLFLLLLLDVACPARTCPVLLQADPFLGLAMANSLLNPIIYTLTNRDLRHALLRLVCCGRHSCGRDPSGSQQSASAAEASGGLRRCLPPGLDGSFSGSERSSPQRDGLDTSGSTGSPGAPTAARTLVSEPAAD
Edg-4, sequence (Q9HBW0 1-340 limits assumed): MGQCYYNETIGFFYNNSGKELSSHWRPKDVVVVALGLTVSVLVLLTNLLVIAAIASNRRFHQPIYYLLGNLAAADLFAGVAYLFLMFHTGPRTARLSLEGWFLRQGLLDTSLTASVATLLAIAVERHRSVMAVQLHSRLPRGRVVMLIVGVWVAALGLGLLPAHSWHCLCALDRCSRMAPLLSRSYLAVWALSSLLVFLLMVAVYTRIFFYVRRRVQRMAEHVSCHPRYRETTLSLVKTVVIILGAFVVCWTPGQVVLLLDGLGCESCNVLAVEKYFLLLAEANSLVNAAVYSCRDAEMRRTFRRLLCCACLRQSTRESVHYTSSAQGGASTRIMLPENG

IC50 (Edg-2; Table 2, LPA-stimulated): > 20 µM
inhibition of LPA-stimulated calcium increases in HTC cells expressing Edg-2 (Edg-2; [3]): did not inhibit
IC50 (Edg-8; Table 2, S1P-stimulated): > 20 µM
inhibition of S1P-stimulated calcium increases in HTC cells expressing Edg-8 (Edg-8; [3]): did not inhibit
IC50 (Edg-3; Table 2, S1P-stimulated): > 20 µM
inhibition of S1P-stimulated calcium increases in HTC cells expressing Edg-3 (Edg-3; [3]): did not inhibit
IC50 (Edg-5; Table 2, S1P-stimulated): > 20 µM
inhibition of S1P-stimulated calcium increases in HTC cells expressing Edg-5 (Edg-5; [3]): did not inhibit
IC50 (Edg-7; Table 2, LPA-stimulated): > 20 µM
inhibition of LPA-stimulated calcium increases in HTC cells expressing Edg-7 (Edg-7; [3]): did not inhibit
IC50 (Edg-4; Table 2, LPA-stimulated): > 20 µM
inhibition of LPA-stimulated calcium increases in HTC cells expressing Edg-4 (Edg-4; [3]): did not inhibit
IC50 (Edg-6; Table 2, S1P-stimulated): > 20 µM
inhibition of S1P-stimulated calcium increases in HTC cells expressing Edg-6 (Edg-6; [3]): did not inhibit
Compound: O=C(c1cccnc1)N1N=C(c2ccc(Br)cc2)CC1(O)C(F)(F)F (stereo not shown) [Compound 102]
effect on S1P-mediated desensitization of the chemotactic response to exodus-2 (murine CD4 T cells; high concentrations of S1P, FIG. 12): reverse S1P-mediated desensitization
effect on S1P-mediated stimulation of the chemotactic response to exodus-2 (murine CD4 T cells; moderate concentrations of S1P, FIG. 12): inhibit S1P-mediated stimulation
reversal of S1P-mediated desensitization in dorsal air-pouch ([1]; co-treatment with S1P): can be reversed
inhibition of S1P-induced matrigel invasion ([2]; HUVEC, 10 μM (FIG. 6)): inhibits S1P-induced matrigel invasion

EC50 (Edg-2; agonist): > 25 µM
calcium response in HTC cells expressing Edg-2 (Edg-2; [4]): did not elicit a calcium response
EC50 (Edg-8; agonist): > 25 µM
calcium response in HTC cells expressing Edg-8 (Edg-8; [4]): did not elicit a calcium response
EC50 (Edg-3; agonist): > 25 µM
calcium response in HTC cells expressing Edg-3 (Edg-3; [4]): did not elicit a calcium response
EC50 (Edg-5; agonist): > 25 µM
calcium response in HTC cells expressing Edg-5 (Edg-5; [4]): did not elicit a calcium response
EC50 (Edg-7; agonist): > 25 µM
calcium response in HTC cells expressing Edg-7 (Edg-7; [4]): did not elicit a calcium response
EC50 (Edg-4; agonist): > 25 µM
calcium response in HTC cells expressing Edg-4 (Edg-4; [4]): did not elicit a calcium response
EC50 (Edg-6; agonist): > 25 µM
calcium response in HTC cells expressing Edg-6 (Edg-6; [4]): did not elicit a calcium response
Compound: COc1cc(C(=O)c2cc(Cl)ccc2N)cc(OC)c1OC [Compound 104, (2-Amino-5-chlorophenyl)-(3,4,5-trimethoxyphenyl)methanone]
concentration needed relative to S1P for same effect on chemotactic response to exodus-2 (murine CD4 T cells; FIG. 11): higher concentrations of 104 than S1P are required
effect on chemotaxis of murine CD4 T cells to exodus-2 (murine CD4 T cells; low and high concentrations desensitize, moderate stimulate, FIG. 11): bell-shaped dose dependant response curve
migration of treated lymphocytes to exodus-2 in dorsal air-pouch ([1]; CD4 T cells treated ex vivo, given intraperitoneally, S1P 1 μM): desensitizes the lymphocytes to attraction by exodus-2
potency of invasion stimulation relative to S1P ([2]; HUVEC, FIG. 7): significantly less potent that S1P
stimulation of invasion of Human Umbilical Vein Endothelial cells ([2]; concentrations between 0.5-100 μM, FIG. 7): stimulates invasion

Reference: US20040147562A1, “Methods of treating conditions associated with an EDG-1 receptor” (priority 2002, published 2004)
